Source: ChEMBL document CHEMBL4130634, “Discovery of Reversible DNA Methyltransferase and Lysine Methyltransferase G9a Inhibitors with Antitumoral in Vivo Efficacy” (J Med Chem, 2018)

What was measured:
[1] = Growth inhibition of human LAL-CUN-2 cells at 1 uM after 48 hrs by MTS assay relative to control; assay type: functional; details: read-out: GI
OCI-Ly10 [2] = test: Growth inhibition of human OCI-LY10 cells at 1 uM after 48 hrs by MTS assay relative to control; assay type: functional; details: OCI-Ly10, 48 h, read-out: GI
[3] = target: DNA (cytosine-5)-methyltransferase 1 (Homo sapiens, UniProt P26358); test: Inhibition of human DNMT1 using polydeoxyinosine polydeoxycytosine DNA as substrate after 15 mins in presence of SAM by TR-FRET assay
[4] = target: T1, Histone-lysine N-methyltransferase EHMT2 (Homo sapiens, UniProt Q96KQ7); test: Inhibition of human G9a using biotinylated-H3K9 peptide as substrate after 1 hr in presence of SAM by TR-FRET assay
T1 sequence (Q96KQ7 whole entry): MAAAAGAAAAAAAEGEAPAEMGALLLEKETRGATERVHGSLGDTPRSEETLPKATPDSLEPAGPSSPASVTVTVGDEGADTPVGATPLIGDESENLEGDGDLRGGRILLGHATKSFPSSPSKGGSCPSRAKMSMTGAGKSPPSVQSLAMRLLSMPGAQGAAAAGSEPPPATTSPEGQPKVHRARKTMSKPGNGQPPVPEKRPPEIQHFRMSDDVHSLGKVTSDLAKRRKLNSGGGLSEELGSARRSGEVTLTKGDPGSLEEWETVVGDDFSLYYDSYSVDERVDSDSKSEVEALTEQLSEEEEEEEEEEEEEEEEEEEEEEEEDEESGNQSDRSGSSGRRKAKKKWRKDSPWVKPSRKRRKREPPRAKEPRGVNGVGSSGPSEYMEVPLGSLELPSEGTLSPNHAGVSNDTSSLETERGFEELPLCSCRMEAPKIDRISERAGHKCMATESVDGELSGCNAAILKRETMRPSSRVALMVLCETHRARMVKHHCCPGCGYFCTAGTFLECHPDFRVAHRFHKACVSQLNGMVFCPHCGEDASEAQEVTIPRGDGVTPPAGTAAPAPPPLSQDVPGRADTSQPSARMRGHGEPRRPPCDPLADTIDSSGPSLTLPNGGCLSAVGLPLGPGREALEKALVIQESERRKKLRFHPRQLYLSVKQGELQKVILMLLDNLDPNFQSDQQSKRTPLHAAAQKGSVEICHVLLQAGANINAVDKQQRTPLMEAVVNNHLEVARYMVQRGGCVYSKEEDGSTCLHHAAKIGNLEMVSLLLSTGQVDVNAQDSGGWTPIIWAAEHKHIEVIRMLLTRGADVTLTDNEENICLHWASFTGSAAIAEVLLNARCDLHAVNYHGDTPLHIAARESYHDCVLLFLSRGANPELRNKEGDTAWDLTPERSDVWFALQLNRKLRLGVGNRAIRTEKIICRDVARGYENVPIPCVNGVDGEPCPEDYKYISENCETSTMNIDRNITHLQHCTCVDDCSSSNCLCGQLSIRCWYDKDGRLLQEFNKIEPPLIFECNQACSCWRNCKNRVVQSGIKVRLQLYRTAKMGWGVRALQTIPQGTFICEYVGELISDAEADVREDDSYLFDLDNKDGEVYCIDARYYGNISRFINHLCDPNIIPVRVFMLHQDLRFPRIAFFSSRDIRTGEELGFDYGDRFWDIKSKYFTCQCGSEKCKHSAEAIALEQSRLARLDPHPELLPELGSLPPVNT

[5] = Permeability of the compound at 50 uM after 18 hrs by PAMPA; assay type: ADME; details: read-out: permeability
OCI-Ly3 [6] = test: Growth inhibition of human OCI-LY3 cells at 1 uM after 48 hrs by MTS assay relative to control; assay type: functional; details: OCI-Ly3, 48 h, read-out: GI
[7] = Growth inhibition of human CEMO1 cells at 1 uM after 48 hrs by MTS assay relative to control; assay type: functional; details: read-out: GI
MV4-11 = test: Growth inhibition of human MV4-11 cells after 48 hrs by MTS assay; assay type: functional; details: MV4-11, 48 h
[8] = Growth inhibition of human CEMO1 cells after 48 hrs by MTS assay; assay type: functional
THLE-2 = test: Growth inhibition of human THLE2 cells after 72 hrs by MTS assay; assay type: cell-based; details: thle-2, 72 h
[9] = Growth inhibition of human LAL-CUN-2 cells after 48 hrs by MTS assay; assay type: functional
OCI-Ly10 [10] = test: Growth inhibition of human OCI-LY10 cells after 48 hrs by MTS assay; assay type: functional; details: OCI-Ly10, 48 h
OCI-Ly3 [11] = test: Growth inhibition of human OCI-LY3 cells after 48 hrs by MTS assay; assay type: functional; details: OCI-Ly3, 48 h

Sequence of DNA (cytosine-5)-methyltransferase 1 (P26358 whole entry): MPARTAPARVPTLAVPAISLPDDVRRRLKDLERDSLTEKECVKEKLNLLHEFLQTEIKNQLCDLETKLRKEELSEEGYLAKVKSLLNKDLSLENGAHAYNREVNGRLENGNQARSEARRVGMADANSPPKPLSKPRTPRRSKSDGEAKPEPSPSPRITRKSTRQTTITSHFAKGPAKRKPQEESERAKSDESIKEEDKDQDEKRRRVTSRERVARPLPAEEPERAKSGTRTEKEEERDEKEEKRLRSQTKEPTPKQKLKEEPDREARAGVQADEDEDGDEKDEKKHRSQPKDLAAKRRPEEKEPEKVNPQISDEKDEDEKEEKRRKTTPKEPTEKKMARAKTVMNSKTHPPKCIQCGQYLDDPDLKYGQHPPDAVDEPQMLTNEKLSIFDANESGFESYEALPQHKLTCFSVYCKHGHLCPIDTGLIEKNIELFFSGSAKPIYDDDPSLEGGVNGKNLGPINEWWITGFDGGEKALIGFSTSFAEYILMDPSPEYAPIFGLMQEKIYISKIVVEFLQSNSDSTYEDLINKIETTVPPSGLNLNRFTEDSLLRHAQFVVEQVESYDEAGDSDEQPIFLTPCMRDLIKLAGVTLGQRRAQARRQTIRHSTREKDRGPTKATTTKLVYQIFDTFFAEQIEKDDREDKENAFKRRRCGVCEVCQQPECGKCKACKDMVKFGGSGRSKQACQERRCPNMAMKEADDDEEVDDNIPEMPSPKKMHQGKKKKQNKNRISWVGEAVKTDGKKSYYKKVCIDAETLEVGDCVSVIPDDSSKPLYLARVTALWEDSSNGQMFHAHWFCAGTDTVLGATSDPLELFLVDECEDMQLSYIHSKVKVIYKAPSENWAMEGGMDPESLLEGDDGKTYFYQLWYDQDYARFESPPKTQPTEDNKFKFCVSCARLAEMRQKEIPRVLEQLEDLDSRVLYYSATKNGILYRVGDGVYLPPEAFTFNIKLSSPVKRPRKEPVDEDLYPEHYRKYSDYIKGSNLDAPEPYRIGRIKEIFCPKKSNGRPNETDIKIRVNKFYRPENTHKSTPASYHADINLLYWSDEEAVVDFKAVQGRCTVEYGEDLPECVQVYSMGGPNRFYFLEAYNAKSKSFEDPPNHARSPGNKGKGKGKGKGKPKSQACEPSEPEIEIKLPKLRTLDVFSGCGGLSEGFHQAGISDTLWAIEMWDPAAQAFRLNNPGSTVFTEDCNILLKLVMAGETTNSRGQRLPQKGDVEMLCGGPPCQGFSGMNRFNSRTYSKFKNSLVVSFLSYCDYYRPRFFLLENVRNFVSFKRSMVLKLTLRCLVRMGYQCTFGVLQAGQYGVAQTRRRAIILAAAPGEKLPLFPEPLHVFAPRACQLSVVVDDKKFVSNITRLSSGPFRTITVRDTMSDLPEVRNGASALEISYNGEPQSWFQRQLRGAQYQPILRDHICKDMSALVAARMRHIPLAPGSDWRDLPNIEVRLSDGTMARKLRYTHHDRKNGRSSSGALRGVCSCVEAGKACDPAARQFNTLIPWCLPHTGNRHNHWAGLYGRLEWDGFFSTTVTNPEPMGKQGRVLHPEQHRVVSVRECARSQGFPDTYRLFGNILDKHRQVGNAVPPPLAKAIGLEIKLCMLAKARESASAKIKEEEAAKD

Row | SMILES | inhibition of growth at 1 µM [1] [%] | inhibition of growth at 1 µM (OCI-Ly10 [2]) [%] | IC50 [3] [nM] | IC50 [4] [nM] | Papp at 18 h, 50 µM [5] [×10⁻⁶ cm/s] | inhibition of growth at 1 µM (OCI-Ly3 [6]) [%] | inhibition of growth at 1 µM [7] [%] | GI50 (MV4-11) [µM] | GI50 [8] [nM] | LC50 (THLE-2) [µM] | GI50 [9] [µM] | GI50 (OCI-Ly10 [10]) [nM] | GI50 (OCI-Ly3 [11]) [nM]
1 | COc1cc2c(NC3CCN(C)CC3)cc(-c3cccnc3)nc2cc1OCCCN1CCCC1 | 16 | 17 | 1410 | 40 | 0.22 | 12 | 0 | – | – | – | – | – | –
2 | COc1cc2c(NC3CCN(C)CC3)cc(C3CCC(C)O3)nc2cc1OCCCN1CCCC1 (stereo unspecified) | – | – | 1370 | 27 | – | – | – | – | – | – | – | – | –
3 | Nc1ncn([C@H]2C[C@H](O)[C@@H](CO)O2)c(=O)n1 [DECITABINE] | – | – | 30 | – | – | – | – | – | – | – | – | – | –
4 | COc1cc2c(NC3CCN(C)CC3)cc(-c3ccc(-c4ccccc4)o3)nc2cc1OCCCN1CCCC1 | – | – | 1050 | 2720 | – | – | – | – | – | – | – | – | –
5 | COc1cc2c(NC3CCN(C)CC3)cc(-c3ccnn3C)nc2cc1OCCCN1CCCC1 | – | – | > 10000 | 1080 | 0.09 | – | – | – | – | – | – | – | –
6 | COc1cc2c(NC3CCN(C)CC3)cc(-c3ccc(C#N)o3)nc2cc1OCCCN1CCCC1 | – | – | 1600 | 264 | – | – | – | – | – | – | – | – | –
7 | CCc1ccc(-c2cc(NC3CCN(C(C)C)CC3)c3cc(OC)c(OCCCN4CCCC4)cc3n2)o1 | – | – | 284 | 3 | 3.83 | – | – | 0.971 | 441 | 1.72 | – | – | –
8 | COc1cc2c(NC3CCN(C)CC3)cc(C3=CCCCC3)nc2cc1OCCCN1CCCC1 | – | – | 494 | 6 | 2.09 | – | – | – | 1180 | 7.58 | 4.29 | – | –
9 | COc1cc2c(NC3CCN(C)CC3)cc(-c3ccc(CO)o3)nc2cc1OCCCN1CCCC1 | 19 | 1 | 759 | 15 | 0.05 | 26 | 0 | – | – | – | – | – | –
10 | COc1cc2c(NC3CCN(C)CC3)nc(-c3ccc(C)o3)nc2cc1OCCCN1CCCC1 | – | – | 2250 | 336 | – | – | – | – | – | – | – | – | –
11 | COc1cc2c(NC3CCN(C)CC3)cc(C3=CCOCC3)nc2cc1OCCCN1CCCC1 | 0 | 16 | 957 | 12 | 0.37 | 6 | 8 | – | – | – | – | – | –
12 | COc1cc2c(NC3CCNCC3)cc(-c3ccc(C)o3)nc2cc1OCCCN1CCCC1 | – | – | 137 | 6 | 0.2 | – | – | – | 1980 | 8.85 | > 5 | > 4000 | 1270
13 | COc1cc2c(NC3CCN(C)CC3)cc(-c3cc[nH]c(=O)c3)nc2cc1OCCCN1CCCC1 | – | – | 1250 | 142 | – | – | – | – | – | – | – | – | –
14 | COc1cc2c(NC3CCN(C)CC3)cc(-c3ccc(C)[nH]3)nc2cc1OCCCN1CCCC1 | 12 | – | 232 | 0.5 | – | – | – | – | 1650 | 7.68 | – | 915 | 896
15 | COc1cc2c(NC3CCN(C)CC3)cc(-c3ccccc3C)nc2cc1OCCCN1CCCC1 | – | – | 582 | 52 | – | – | – | – | – | – | – | – | –
16 | COc1cc2c(NC3CCN(C)CC3)cc(-c3cc4ccccc4o3)nc2cc1OCCCN1CCCC1 | – | – | 1070 | 3140 | – | – | – | – | – | – | – | – | –
17 | COc1cc2c(NC3CCN(C)CC3)cc(-c3ccc(C)s3)nc2cc1OCCCN1CCCC1 | – | 42 | 230 | 43 | 2.91 | 21 | – | 3.1 | 555 | 4.06 | – | – | –
18 | CCc1ccc(-c2cc(NC3CCN(C4CC4)CC3)c3cc(OC)c(OCCCN4CCCC4)cc3n2)o1 | – | – | 274 | 24 | 5.56 | – | – | 3.51 | 917 | 0.703 | – | 236 | 1560
19 | COc1cc2c(NC3CCN(C)CC3)cc(-c3ccccc3)nc2cc1OCCCN1CCCC1 | 7 | – | 1050 | 15 | 1.69 | – | – | 2.6 | 658 | 5.62 | – | 420 | 717
20 | COc1cc2c(NC3CCN(C)CC3)cc(-c3ccn(C)n3)nc2cc1OCCCN1CCCC1 | 16 | 0 | 969 | 44 | – | 16 | 10 | – | – | – | – | – | –
21 | Nc1ncn([C@@H]2O[C@H](CO)[C@@H](O)[C@H]2O)c(=O)n1 [AZACITIDINE] | – | – | 300 | – | – | – | – | – | – | – | – | – | –
22 | CCNCc1ccc(-c2cc(NC3CCN(C)CC3)c3cc(OC)c(OCCCN4CCCC4)cc3n2)o1 | 3 | 0 | 618 | 48 | 0.13 | 0 | 0 | – | – | – | – | – | –
23 | COc1cc(NC2CCN(C)CC2)c2cc(OC)c(OCCCN3CCCC3)cc2n1 | – | – | 2290 | 136 | – | – | 1 | – | – | – | – | – | –
24 | COc1cc2c(NC3CCN(C)CC3)cc(C3CCCCC3)nc2cc1OCCCN1CCCC1 | – | – | 497 | 2 | 1.98 | – | 20 | > 10 | – | 34.8 | – | – | –
25 | COc1cc2c(NC3CCN(C)CC3)cc(C3CCOCC3)nc2cc1OCCCN1CCCC1 | 6 | 3 | 4420 | 17 | 0.22 | 0 | 20 | – | – | – | – | – | –
26 | COc1cc2c(NC3CCN(C)CC3)cc(-c3ccc(CN(C)C)o3)nc2cc1OCCCN1CCCC1 | – | – | 1270 | 148 | – | – | – | – | – | – | – | – | –
27 | COc1cc2c(NC3CCN(C)CC3)cc(C(F)(F)F)nc2cc1OCCCN1CCCC1 | – | – | > 10000 | 637 | – | – | 24 | – | – | – | – | – | –
